Measurements taken from patent US20240027453A1, “METHOD FOR DETECTION AND QUANTITATIVE MONITORING OF INFECTIONS WITH HERPESVIRUSES” (The Trustees of Princeton University, priority 2020, published 2024).
Like-named read-outs stand apart in the source and are kept apart here.

Test system: HCMV
Type: cell-based
Experimental: In example herpesvirus PRM assay methods shown herein, cell pellets were lysed in 2% SDS, 100 mM NaCl, 0.5 mM EDTA, 50 mM Tris, pH 8.2, and 50 μg of protein was reduced and alkylated with 25 mM TCEP and 50 mM CAM respectively for 20 min at 70° C. Proteins were then precipitated via methanol chloroform precipitation (Wessel & Flugg, Anal Biochem. 138(1):141-143, 1984), resuspended in 50 mM HEPES, pH 8.2 and digested overnight with trypsin (50:1 protein:enzyme w/w ratio). Digested peptides were desalted by SDB-RPS StageTip as previously described (Lum et al., Cell Syst., 7(6):[…], 2018; Greco et al., Methods Mol Biol 1410:39-63, 2016; Federspiel & Cristea, Methods Mol Biol., 1977:115-143, 2019).
Peptides (1.0 μg on column) were analyzed by LC-MS/MS using a Dionex Ultimate 3000 UHPLC coupled online to an EASYSpray ion source and a Q Exactive HF. Peptides were separated on an EASYSpray C18 column (75 μm×25 cm) heated to 50° C. using a linear gradient of 5% B to 32% B over 60 min at a flow rate of 250 nL/min and were ionized at 1.7 kv. Mobile phase A consisted of 0.1% FA in H2O and mobile phase B consisted of 0.1% FA, 2.9% H2O in ACN.
The PRM method was controlled by a peptide inclusion list with retention time windows of 6 min for selected precursor ions.
The PRM assay was developed and analyzed using the open-source software Skyline (Maclean et al., Bioinformatics 26(7):966-968, 2010). Summed area under the curve of 3-4 transitions per peptide was used for quantitation. Targeted peptides were normalized to host protein loading control peptides. Peptide values for each sample were scaled to the average of each peptide across all runs. The average of multiple peptides was used as the inferred value for the protein measurement when more than one peptide was quantified (Federspiel et al., PLoS Biol. 17(9):e3000437. Doi: 10.1371/journal.pbio.3000437). PRM quantitation data were graphed using the Python Seaborn and Matplotlib libraries.
MRC5 primary human fibroblasts (HFs) (ATCC CCL-171) were used as the model system for HSV-1 and HCMV infections and were cultured in complete growth medium (DMEM supplemented with 10% fetal bovine serum and 1% penicillin-streptomycin antibiotics) at 37° C. and 5% CO2. iSLK.219 cells harboring latent KSHV (a gift from Dr. Britt Glaunsinger, University of California, Berkeley) were grown in complete growth medium supplemented with 500 μg/ml hygromycin (ThermoFisher Scientific, 10687010) at 37° C. and 5% CO2. All cells were used for experiments within a maximum of 10 passages.
Wild type HSV-1 strain 17+ (a gift from Beate Sodeik, Hannover Medical School, Hannover, Germany) was propagated as previously described (Diner et al., 2015). Briefly, PO stocks were generated by electroporating pBAC-HSV-1 into U-2 OS cells. […] In a similar manner, wild type HCMV strain AD169 was produced from BAC electroporation into HFs and working stocks were propagated by infecting HFs at a low level. In both cases, cell-associated virus was released by sonication, combined with supernatant virus, then concentrated by ultracentrifugation (20,000 rpm, 2 hours, 4° C. with SW28 swinging bucket rotor [Beckman Coulter]) over a 10% ficoll (HSV-1) or 20% sorbitol (HCMV) cushion. Virus stock titers were determined by plaque assay for HSV-1 or tissue culture infectious dose (TCID50) for HCMV and infections were performed at a multiplicity of infection (MOI) of 3.
12 hours prior to virus infection or reactivation, cells were treated with either the small molecule drug or DMSO/PBS control at an equivalent volume. […] For infection cycles lasting longer than 24 hours, small molecule drugs were re-added to the cell culture medium every 24 hours. Upon collection, cells were rinsed with PBS, scraped into a microcentrifuge tube, pelleted by centrifugation, and rinsed again with PBS.

Q: `Nc1ccn(C[C@@H](CO)OCP(=O)(O)O)c(=O)n1` [CDV, cidofovir] was tested. Which “gB (P06473) protein, numerical value of heatmap FIG. 6C” value (DE, timepoint 96) did it give?
A: Its value is 0.9959.

Q: And the “sp|P09710|IR01_HCMVA (P09710) protein, numerical value of heatmap FIG. 6C” value (DE, timepoint 96)?
A: Its value is 0.4967.

Q: What about the “CVC2 (P16726) protein, numerical value of heatmap FIG. 6C” value (DE, timepoint 120) of the same compound?
A: Its value is 0.9588.

Q: What about the “DBP (P17147) protein, numerical value of heatmap FIG. 6C” value (DE, timepoint 120) of the same compound?
A: The value was 2.035.

Q: What about the “HELI (P16736) protein, numerical value of heatmap FIG. 6C” value (DE, timepoint 120) of the same compound?
A: The value was 1.128.

Q: And the “NEC1 (P16794) protein, numerical value of heatmap FIG. 6C” value (DE, timepoint 120)?
A: Its value is 1.121.

Q: What about the “NEC2 (P16791) protein, numerical value of heatmap FIG. 6C” value (DE, timepoint 120) of the same compound?
A: Its value is 1.797.

Q: And the “RIR1 (P16782) protein, numerical value of heatmap FIG. 6C” value (DE, timepoint 120)?
A: The value was 1.313.

Q: What about the “TRM1 (P16724) protein, numerical value of heatmap FIG. 6C” value (DE, timepoint 120) of the same compound?
A: The value was 1.312.

Q: And the “UL4 (P17146) protein, numerical value of heatmap FIG. 6C” value (DE, timepoint 120)?
A: The value was 0.635.

Q: And the “UL26 (P16762) protein, numerical value of heatmap FIG. 6C” value (DE, timepoint 120)?
A: The value was 1.564.

Q: What about the “UL32 (P08318) protein, numerical value of heatmap FIG. 6C” value (DE, timepoint 120) of the same compound?
A: The value was 1.478.

Q: And the “UL34 (P16812) protein, numerical value of heatmap FIG. 6C” value (DE, timepoint 120)?
A: Its value is 0.9444.

Q: What about the “UL35 (P16766) protein, numerical value of heatmap FIG. 6C” value (DE, timepoint 120) of the same compound?
A: The value was 1.133.

Q: What about the “UL38 (P16779) protein, numerical value of heatmap FIG. 6C” value (DE, timepoint 120) of the same compound?
A: The value was 1.272.

Q: And the “UL44 (P16790) protein, numerical value of heatmap FIG. 6C” value (DE, timepoint 120)?
A: The value was 1.235.

Q: And the “UL48 (P16785) protein, numerical value of heatmap FIG. 6C” value (DE, timepoint 120)?
A: The value was 1.1.

Q: What about the “UL54 (P08546) protein, numerical value of heatmap FIG. 6C” value (DE, timepoint 120) of the same compound?
A: The value was 1.415.

Q: What about the “UL71 (P16823) protein, numerical value of heatmap FIG. 6C” value (DE, timepoint 120) of the same compound?
A: Its value is 1.229.

Q: And the “UL78 (P16751) protein, numerical value of heatmap FIG. 6C” value (DE, timepoint 120)?
A: Its value is 0.9208.

Q: What about the “UL84 (P16727) protein, numerical value of heatmap FIG. 6C” value (DE, timepoint 120) of the same compound?
A: Its value is 1.217.

Q: What about the “UL95 (P16801) protein, numerical value of heatmap FIG. 6C” value (DE, timepoint 120) of the same compound?
A: The value was 0.7275.

Q: What about the “UL96 (P16787) protein, numerical value of heatmap FIG. 6C” value (DE, timepoint 120) of the same compound?
A: Its value is 1.265.

Q: And the “UL97 (P16788) protein, numerical value of heatmap FIG. 6C” value (DE, timepoint 120)?
A: The value was 1.137.

Q: And the “UL98 (P16789) protein, numerical value of heatmap FIG. 6C” value (DE, timepoint 120)?
A: The value was 1.14.

Q: What about the “UL102 (P16827) protein, numerical value of heatmap FIG. 6C” value (DE, timepoint 120) of the same compound?
A: The value was 1.353.

Q: And the “UL104 (P16735) protein, numerical value of heatmap FIG. 6C” value (DE, timepoint 120)?
A: The value was 0.8938.

Q: And the “UL112/UL113 (P17151) protein, numerical value of heatmap FIG. 6C” value (DE, timepoint 120)?
A: The value was 0.8795.

Q: And the “UL114 (P16769) protein, numerical value of heatmap FIG. 6C” value (DE, timepoint 120)?
A: Its value is 1.541.

Q: And the “UL119/UL118 (P16739) protein, numerical value of heatmap FIG. 6C” value (DE, timepoint 120)?
A: The value was 0.8678.

Q: What about the “UL128 (P16837) protein, numerical value of heatmap FIG. 6C” value (DE, timepoint 120) of the same compound?
A: The value was 1.193.

Q: What about the “US8 (P09730) protein, numerical value of heatmap FIG. 6C” value (DE, timepoint 120) of the same compound?
A: The value was 1.14.

Q: What about the “US9 (P09729) protein, numerical value of heatmap FIG. 6C” value (DE, timepoint 120) of the same compound?
A: Its value is 1.342.

Q: What about the “US12 (P09721) protein, numerical value of heatmap FIG. 6C” value (DE, timepoint 120) of the same compound?
A: The value was 0.661.

Q: And the “US13 (P09720) protein, numerical value of heatmap FIG. 6C” value (DE, timepoint 120)?
A: Its value is 0.7786.

Q: What about the “US14 (P09719) protein, numerical value of heatmap FIG. 6C” value (DE, timepoint 120) of the same compound?
A: Its value is 0.6977.

Q: And the “US18 (P69334) protein, numerical value of heatmap FIG. 6C” value (DE, timepoint 120)?
A: The value was 0.679.

Q: What about the “US22 (P09722) protein, numerical value of heatmap FIG. 6C” value (DE, timepoint 120) of the same compound?
A: Its value is 1.167.

Q: What about the “US23 (P09701) protein, numerical value of heatmap FIG. 6C” value (DE, timepoint 120) of the same compound?
A: The value was 1.024.

Q: And the “US24 (P09700) protein, numerical value of heatmap FIG. 6C” value (DE, timepoint 120)?
A: Its value is 1.043.

Q: And the “gB (P06473) protein, numerical value of heatmap FIG. 6C” value (DE, timepoint 120)?
A: Its value is 1.203.

Q: What about the “sp|P09710|IR01_HCMVA (P09710) protein, numerical value of heatmap FIG. 6C” value (DE, timepoint 120) of the same compound?
A: Its value is 0.7849.

Q: What about the “IRS1 (P09715) protein, numerical value of heatmap FIG. 6C” value (IE, timepoint 24) of the same compound?
A: The value was 0.2.

Q: What about the “TRS1 (P09695) protein, numerical value of heatmap FIG. 6C” value (IE, timepoint 24) of the same compound?
A: Its value is 0.1103.

Q: What about the “UL13 (P16755) protein, numerical value of heatmap FIG. 6C” value (IE, timepoint 24) of the same compound?
A: Its value is 0.5131.

Q: And the “UL36 (P16767) protein, numerical value of heatmap FIG. 6C” value (IE, timepoint 24)?
A: Its value is 0.9885.

Q: And the “UL37 (P16778) protein, numerical value of heatmap FIG. 6C” value (IE, timepoint 24)?
A: Its value is 0.5466.

Q: And the “UL122 (P19893) protein, numerical value of heatmap FIG. 6C” value (IE, timepoint 24)?
A: The value was 0.05364.

Q: What about the “UL123 (P13202) protein, numerical value of heatmap FIG. 6C” value (IE, timepoint 24) of the same compound?
A: Its value is 0.7324.

Q: What about the “IRS1 (P09715) protein, numerical value of heatmap FIG. 6C” value (IE, timepoint 48) of the same compound?
A: Its value is 0.5408.

Q: What about the “TRS1 (P09695) protein, numerical value of heatmap FIG. 6C” value (IE, timepoint 48) of the same compound?
A: The value was 0.403.

Q: And the “UL13 (P16755) protein, numerical value of heatmap FIG. 6C” value (IE, timepoint 48)?
A: The value was 0.7812.
